Reference: PubChem BioAssay (NCI)
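All cell lines were grown in 96-well plates and treated with compound for 48 hours. Abbreviation: GI50, concentration required for 50% inhibition of growth. Definition used: TGI = concentration required for complete inhibition of growth.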

Tests used:
Assay in all cases: DTP human tumour cell line panel, 48 h
HS 578T breast = tested on: HS 578T breast
SW-620 colon = tested on: SW-620 colon
NCI-H23 lung = tested on: NCI-H23 lung
TK-10 renal = tested on: TK-10 renal
MDA-MB-231 breast = tested on: MDA-MB-231 breast
EKVX NSCLC = tested on: EKVX NSCLC
A549 NSCLC = tested on: A549 NSCLC
HT29 colon = tested on: HT29 colon
U251 CNS = tested on: U251 CNS
LOX IMVI melanoma = tested on: LOX IMVI melanoma

Structure (SMILES) | GI50 (HS 578T breast) | TGI (HS 578T breast) | GI50 (SW-620 colon) | TGI (SW-620 colon) | GI50 (NCI-H23 lung) | TGI (NCI-H23 lung) | GI50 (TK-10 renal) | TGI (TK-10 renal) | GI50 (MDA-MB-231 breast) | TGI (MDA-MB-231 breast) | GI50 (EKVX NSCLC) | TGI (EKVX NSCLC) | GI50 (A549 NSCLC) | TGI (A549 NSCLC) | GI50 (HT29 colon) | TGI (HT29 colon) | GI50 (U251 CNS) | TGI (U251 CNS) | GI50 (LOX IMVI melanoma) | TGI (LOX IMVI melanoma)
C[C@@H](Nc1nc(Nc2ccc(F)c(Cl)c2)nc2ccccc12)C1CC1 | 6.02 µM | 25.6 µM | 3.14 µM | 13.9 µM | 1.48 µM | 9.34 µM | 6.96 µM | 20.3 µM | 2.46 µM | 7.61 µM | 2.72 µM | 12.4 µM | 5.64 µM | 19.6 µM | 2.72 µM | 11.7 µM | 3.72 µM | 14.5 µM | 1.68 µM | 3.25 µM
N#CC1C=Cc2c(ccc3ccccc23)N1C(=O)c1ccccc1 (configuration not stated) | 1.31 µM |  | 0.0657 µM | > 75.2 µM | 0.433 µM | > 100 µM | 3.78 µM | > 65.8 µM | 0.763 µM | > 100 µM | 0.31 µM |  | 0.339 µM | > 100 µM | 0.0701 µM | 3.82 µM | 0.387 µM | > 81.6 µM | 0.319 µM | > 100 µM
CC(C)=CCCC(C)C1=C(O)C(=O)C(C)=CC1=O (configuration not stated) |  | > 79.3 µM |  | > 50.4 µM |  | 34 µM |  | 23.5 µM |  | 7.94 µM |  | > 49.8 µM |  | > 100 µM |  | > 64 µM |  | > 56.1 µM |  | 15.1 µM
O=C1OCC2=C1C(c1ccccc1)c1cc3c(cc1N2CCO)OCCO3 (configuration not stated) | 0.206 µM | 10.8 µM | 0.224 µM | > 50 µM | 0.448 µM | > 50 µM | 1.27 µM |  | 1.14 µM | 11.5 µM | 0.962 µM | > 50 µM | 0.62 µM | > 40.1 µM | 0.168 µM | 1.61 µM | 0.279 µM | > 50 µM | 0.36 µM | > 50 µM
CC(=O)c1cc(O)c2ccccc2c1O | 39.7 µM | > 100 µM | 18.4 µM | 49.2 µM | 20.2 µM | 53.7 µM | 17 µM | 33.1 µM | 15.2 µM | 36.2 µM | 22.1 µM | 81.2 µM | 37.1 µM | > 100 µM | 15.5 µM | 37 µM | 18.6 µM | 33.6 µM | 14.8 µM | 39.3 µM
O=C1C(Cl)=C(Nc2cccc(O)c2)C(=O)N1Cc1ccc(Cl)cc1Cl | 1.66 µM | 21.8 µM | 0.565 µM | 15.7 µM | 3.78 µM | 17.8 µM | 13.6 µM | 28.4 µM | 1.17 µM | 11 µM | 10 µM | 26.6 µM | 8.33 µM | 28.1 µM | 1.29 µM | 90.3 µM | 4.31 µM | 15.5 µM | 4.06 µM | 15.5 µM
Cc1cc(Nc2cc(N)ncn2)c(=O)n2c1C(=O)NC21CCCCC1 | 54.3 µM | > 100 µM | > 100 µM | > 100 µM | > 100 µM | > 100 µM | > 100 µM | > 100 µM | 82 µM | > 100 µM | > 100 µM | > 100 µM | > 100 µM | > 100 µM | > 100 µM | > 100 µM | 83.7 µM | > 100 µM | > 100 µM | > 100 µM
Cc1ccc([C@]2(C)CC[C@H](C)/C2=C\Br)c(O)c1 | 2.95 µM | 15.7 µM | 3.98 µM | 16.2 µM | 11.4 µM | 24.9 µM | 3.35 µM | 14.1 µM | 3.5 µM | 14.4 µM | 5.74 µM | 17.7 µM | 5.85 µM | 19 µM | 2.52 µM | 6.65 µM | 4.03 µM | 14.4 µM | 8.21 µM | 22.3 µM
